Data: PubChem BioAssay AID330 (DTP/NCI, 2004)
Values joined by “and” are separate entries in the source; they are usually repeats but may differ in a detail not shown here. Identical values can stand only once. Toxic doses and inconclusive results are not listed.

System: P388 leukemia ip, CD2F1 mice, survival T/C
Test: NCI In Vivo Anticancer Drug Screen. Data for tumor model P388 Leukemia (intraperitoneal) in CD2F1 (CDF1) mice
Details: endpoint: median survival time, higher = longer survival
How it was run: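 Mice carrying the transplanted tumor received test compound or vehicle. Survival was recorded in each group, and the value is the treated-group measurement divided by that of the vehicle-treated control group.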

[1] = dose: 50.0 mg/kg/injection, schedule: Q01DX009 (ip), vehicle: saline with Tween-80
[2] = dose: 100.0 mg/kg/injection, schedule: Q01DX009 (ip), vehicle: saline with Tween-80
[3] = dose: 200.0 mg/kg/injection, schedule: Q01DX009 (ip), vehicle: saline with Tween-80
[4] = dose: 60.0 mg/kg/injection, schedule: Q01DX005 (ip), vehicle: saline with Tween-80
[5] = dose: 120.0 mg/kg/injection, schedule: Q01DX005 (ip), vehicle: saline with Tween-80
[6] = dose: 240.0 mg/kg/injection, schedule: Q01DX005 (ip), vehicle: saline with Tween-80
[7] = dose: 100.0 mg/kg/injection, schedule: Q04DX003 (ip), vehicle: saline

CCC1(O)C(=O)OCc2c1cc1n(c2=O)Cc2cc3ccccc3nc2-1 (centres undefined)
T/C (dose: 2.0 mg/kg/injection, schedule: Q04DX003 (ip), vehicle: other): 150 % of control and 153 % of control
T/C (dose: 4.0 mg/kg/injection, schedule: Q04DX003 (ip), vehicle: other): 167 % of control and 178 % of control
T/C (dose: 8.0 mg/kg/injection, schedule: Q04DX003 (ip), vehicle: other): 222 % of control and 229 % of control
T/C (dose: 16.0 mg/kg/injection, schedule: Q04DX003 (ip), vehicle: other): 118 % of control

CN(C)c1cc(=O)c2c(ccc3ccccc32)o1
T/C [1]: 92 % of control
T/C [2]: 95 % of control
T/C [3]: 95 % of control

Nc1nc2c(c(=O)[nH]1)N(C(=O)CCCC(=O)O)C(CN(C(=O)CCCC(=O)O)c1ccc(C(=O)NC(CCC(=O)O)C(=O)O)cc1)CN2 (centres undefined) (tested in a mixture with another compound)
T/C (dose: 50.0 mg/kg/injection, schedule: Q01DX009 (ip), vehicle: saline): 94 % of control
T/C (dose: 100.0 mg/kg/injection, schedule: Q01DX009 (ip), vehicle: saline): 110 % of control
T/C (dose: 200.0 mg/kg/injection, schedule: Q01DX009 (ip), vehicle: saline): 95 % of control

O=c1c(-c2ccccc2)nc2ccccc2n1CC1CCCN2CCCC[C@H]12 (some centres undefined)
T/C [4]: 99 % of control
T/C [5]: 97 % of control
T/C [6]: 102 % of control

CN(CS(=O)(=O)c1ccccc1)CS(=O)(=O)c1ccccc1
T/C (dose: 60.0 mg/kg/injection, schedule: Q01DX005 (ip), vehicle: Klucel (hydroxypropylcellulose) (HPC)): 110 % of control
T/C (dose: 120.0 mg/kg/injection, schedule: Q01DX005 (ip), vehicle: Klucel (hydroxypropylcellulose) (HPC)): 105 % of control
T/C (dose: 240.0 mg/kg/injection, schedule: Q01DX005 (ip), vehicle: Klucel (hydroxypropylcellulose) (HPC)): 108 % of control

CC(=N/N=C(N)N)/C(C)=N\Nc1ccc(Cl)cc1
T/C (dose: 25.0 mg/kg/injection, schedule: Q04DX003 (ip), vehicle: saline): 101 % of control
T/C (dose: 50.0 mg/kg/injection, schedule: Q04DX003 (ip), vehicle: saline): 101 % of control
T/C [7]: 108 % of control and 88 % of control

CC(CN(C)C)C(/C=C/c1ccc(F)cc1)=N\Nc1ccccc1 (centres undefined)
T/C [4]: 102 % of control
T/C [5]: 122 % of control

C=CCNC(=O)/C=C\C(=O)O
T/C (dose: 37.5 mg/kg/injection, schedule: Q01DX009 (ip), vehicle: saline with Tween-80): 98 % of control
T/C (dose: 75.0 mg/kg/injection, schedule: Q01DX009 (ip), vehicle: saline with Tween-80): 94 % of control
T/C (dose: 150.0 mg/kg/injection, schedule: Q01DX009 (ip), vehicle: saline with Tween-80): 94 % of control
T/C (dose: 300.0 mg/kg/injection, schedule: Q01DX009 (ip), vehicle: saline with Tween-80): 100 % of control

O=c1c2ccccc2sc2c([N+](=O)[O-])ccc(NCCNCCO)c12
T/C [1]: 120 % of control and 123 % of control

O=C(OC(C(=O)O)c1ccccc1)c1ccc([N+](=O)[O-])cc1 (centres undefined)
T/C (dose: 75.0 mg/kg/injection, schedule: Q01DX001 (ip), vehicle: Klucel (hydroxypropylcellulose) (HPC)): 89 % of control
T/C (dose: 150.0 mg/kg/injection, schedule: Q01DX001 (ip), vehicle: Klucel (hydroxypropylcellulose) (HPC)): 103 % of control
T/C (dose: 300.0 mg/kg/injection, schedule: Q01DX001 (ip), vehicle: Klucel (hydroxypropylcellulose) (HPC)): 95 % of control

CC1=CC(=O)C(O)C2(C)C1CC1OC(=O)C(OC3OC(CO)C(O)C(O)C3O)C3C(C)C(O)C4(O)OCC13C42 (centres undefined)
T/C (dose: 0.25 mg/kg/injection, schedule: Q01DX005 (ip), vehicle: water): 101 % of control
T/C (dose: 0.5 mg/kg/injection, schedule: Q01DX005 (ip), vehicle: water): 102 % of control

Cc1cccc(-c2cc3ccccc3c(Cl)n2)n1
T/C (dose: 100.0 mg/kg/injection, schedule: Q01DX001 (ip), vehicle: saline with Tween-80): 104 % of control
T/C (dose: 200.0 mg/kg/injection, schedule: Q01DX001 (ip), vehicle: saline with Tween-80): 100 % of control
T/C (dose: 400.0 mg/kg/injection, schedule: Q01DX001 (ip), vehicle: saline with Tween-80): 91 % of control

CCCCc1c(OC(=O)N(C)C)c(C#N)c2n(C)c3ccccc3n2c1=O
T/C [4]: 101 % of control and 86 % of control
T/C [5]: 95 % of control
T/C [6]: 93 % of control and 96 % of control

CC(=O)N1CCCC2=C1CCCCCCCCCC2
T/C [7]: 99 % of control
T/C (dose: 200.0 mg/kg/injection, schedule: Q04DX003 (ip), vehicle: saline): 105 % of control
T/C (dose: 400.0 mg/kg/injection, schedule: Q04DX003 (ip), vehicle: saline): 96 % of control

CCC[As](C)SC1OC(COC(C)=O)C(OC(C)=O)C(OC(C)=O)C1OC(C)=O (centres undefined)
T/C [1]: 110 % of control
T/C [2]: 110 % of control
T/C [3]: 110 % of control

COc1cc2c(c3oc4c(O)cccc4c(=O)c13)CC(C(C)(O)CCl)O2 (centres undefined)
T/C (dose: 2.0 mg/kg/injection, schedule: Q01DX009 (ip), vehicle: saline + alcohol): 113 % of control
T/C (dose: 4.0 mg/kg/injection, schedule: Q01DX009 (ip), vehicle: saline + alcohol): 112 % of control

CC([NH-])C(=O)O.CC([NH-])C(=O)O.[Cu+2] (centres undefined)
T/C (dose: 12.5 mg/kg/injection, schedule: Q01DX009 (ip), vehicle: Klucel (hydroxypropylcellulose) (HPC)): 99 % of control

COC(=O)Cc1onc(-c2ccccc2)c1[N+](=O)[O-]
T/C [4]: 101 % of control
T/C [5]: 101 % of control
T/C [6]: 94 % of control

O=C1CN(c2cccc(Cl)c2)C(=O)CN1/N=C/c1ccc[nH]1
T/C (dose: 50.0 mg/kg/injection, schedule: Q01DX005 (ip), vehicle: saline with Tween-80): 92 % of control
T/C (dose: 100.0 mg/kg/injection, schedule: Q01DX005 (ip), vehicle: saline with Tween-80): 102 % of control
T/C (dose: 200.0 mg/kg/injection, schedule: Q01DX005 (ip), vehicle: saline with Tween-80): 90 % of control

CC1=C2C(O)C(=O)OC3CC4C(C)(C)C(=O)CCC4(C)C(CC1)C23C (centres undefined)
T/C (dose: 0.1 mg/kg/injection, schedule: Q01DX009 (ip), vehicle: Klucel (hydroxypropylcellulose) (HPC)): 97 % of control
T/C (dose: 0.21 mg/kg/injection, schedule: Q01DX009 (ip), vehicle: Klucel (hydroxypropylcellulose) (HPC)): 98 % of control
T/C (dose: 0.43 mg/kg/injection, schedule: Q01DX009 (ip), vehicle: Klucel (hydroxypropylcellulose) (HPC)): 100 % of control
T/C (dose: 0.87 mg/kg/injection, schedule: Q01DX009 (ip), vehicle: Klucel (hydroxypropylcellulose) (HPC)): 102 % of control
T/C (dose: 1.75 mg/kg/injection, schedule: Q01DX009 (ip), vehicle: Klucel (hydroxypropylcellulose) (HPC)): 98 % of control

CCCCCCCC1SC(=S)NC1=O (centres undefined)
T/C (dose: 6.25 mg/kg/injection, schedule: Q04DX003 (ip), vehicle: other): 109 % of control
T/C (dose: 12.5 mg/kg/injection, schedule: Q04DX003 (ip), vehicle: other): 101 % of control
T/C (dose: 25.0 mg/kg/injection, schedule: Q04DX003 (ip), vehicle: other): 108 % of control
T/C (dose: 50.0 mg/kg/injection, schedule: Q04DX003 (ip), vehicle: other): 108 % of control
T/C (dose: 100.0 mg/kg/injection, schedule: Q04DX003 (ip), vehicle: other): 101 % of control

Cn1c(=O)c2c(CCCC(=O)O)onc2n(C)c1=O
T/C (dose: 25.0 mg/kg/injection, schedule: Q01DX009 (ip), vehicle: saline with Tween-80): 96 % of control
T/C [1]: 93 % of control
T/C [2]: 90 % of control

O=C(O)c1[nH]c(=O)[nH]c(=O)c1CO
T/C (dose: 6.25 mg/kg/injection, schedule: Q01DX009 (ip), vehicle: distilled water + Tween-80): 99 % of control
T/C (dose: 12.5 mg/kg/injection, schedule: Q01DX009 (ip), vehicle: distilled water + Tween-80): 100 % of control
T/C (dose: 25.0 mg/kg/injection, schedule: Q01DX009 (ip), vehicle: distilled water + Tween-80): 103 % of control
T/C (dose: 50.0 mg/kg/injection, schedule: Q01DX009 (ip), vehicle: distilled water + Tween-80): 110 % of control
T/C (dose: 100.0 mg/kg/injection, schedule: Q01DX009 (ip), vehicle: distilled water + Tween-80): 100 % of control
T/C (dose: 200.0 mg/kg/injection, schedule: Q01DX009 (ip), vehicle: distilled water + Tween-80): 95 % of control
T/C (dose: 400.0 mg/kg/injection, schedule: Q01DX009 (ip), vehicle: distilled water + Tween-80): 104 % of control

CC12CCC3C(CCC4=CC(OC5OC(CO)C(O)C(O)C5O)CCC43C=O)C1(O)CCC2c1ccc(=O)oc1 (centres undefined)
T/C (dose: 0.12 mg/kg/injection, schedule: Q01DX009 (ip), vehicle: saline + alcohol): 103 % of control
T/C (dose: 0.25 mg/kg/injection, schedule: Q01DX009 (ip), vehicle: saline + alcohol): 106 % of control
T/C (dose: 0.5 mg/kg/injection, schedule: Q01DX009 (ip), vehicle: saline + alcohol): 106 % of control
T/C (dose: 1.0 mg/kg/injection, schedule: Q01DX009 (ip), vehicle: saline + alcohol): 103 % of control

CCN(CCC(=O)OC)Cc1ccnc2ccccc12
T/C (dose: 50.0 mg/kg/injection, schedule: Q01DX005 (ip), vehicle: saline): 103 % of control
T/C (dose: 100.0 mg/kg/injection, schedule: Q01DX005 (ip), vehicle: saline): 113 % of control
T/C (dose: 200.0 mg/kg/injection, schedule: Q01DX005 (ip), vehicle: saline): 106 % of control
